Measurements published in US20090062294A1, “HETEROARYL-SUBSTITUTED UREA MODULATORS OF FATTY ACID AMIDE HYDROLASE” (priority 2007, published 2009).
Where a name gives a salt, the structure may show the parent alone.

Tests used:
FAAH = biological target: T1, FAAH (Homo sapiens, UniProt O00519); experiment: Assay Method 1: FAAH assay, 3H-anandamide hydrolysis in homogenate of T84 cells or SK-N-MC cells transfected with human FAAH; assay type: biochemical; details: average of results, > = solubility limit or highest concentration tested
T1 sequence (O00519 1-579): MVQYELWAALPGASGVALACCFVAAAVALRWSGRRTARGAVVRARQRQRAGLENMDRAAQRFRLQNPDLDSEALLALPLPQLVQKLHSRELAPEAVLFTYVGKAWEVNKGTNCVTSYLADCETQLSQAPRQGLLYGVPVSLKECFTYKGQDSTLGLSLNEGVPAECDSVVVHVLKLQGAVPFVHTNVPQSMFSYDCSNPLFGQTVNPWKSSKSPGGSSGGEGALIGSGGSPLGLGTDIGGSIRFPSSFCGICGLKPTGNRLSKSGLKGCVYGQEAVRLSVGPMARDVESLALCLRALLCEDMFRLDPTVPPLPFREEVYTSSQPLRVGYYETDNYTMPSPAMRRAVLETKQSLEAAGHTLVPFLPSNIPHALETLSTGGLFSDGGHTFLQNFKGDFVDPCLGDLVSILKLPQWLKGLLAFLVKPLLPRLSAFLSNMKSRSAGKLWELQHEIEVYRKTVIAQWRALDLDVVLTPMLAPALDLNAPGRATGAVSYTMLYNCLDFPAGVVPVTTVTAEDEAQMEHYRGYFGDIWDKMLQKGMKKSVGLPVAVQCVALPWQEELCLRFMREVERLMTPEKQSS
Method: A. Transfection of Cells with Human FAAH
(§1) A 10-cm tissue culture dish with a confluent monolayer of SK—N-MC cells was split 2 days (d) prior to transfection. Using sterile technique, the media was removed and the cells were detached from the dish by the addition of trypsin. One fifth of the cells were then placed onto a new 10-cm dish. Cells were grown in a 37° C. incubator with 5% CO2 in Minimal Essential Media Eagle with 10% Fetal Bovine Serum. After 2 d, cells were approximately 80% confluent. These cells were removed from the dish with trypsin and pelleted in a clinical centrifuge. The pellet was re-suspended in 400 μL complete media and transferred to an electroporation cuvette with a 0.4 cm gap between the electrodes. Supercoiled human FAAH cDNA (1 μg) was added to the cells and mixed. The voltage for the electroporation was set at 0.25 kV, and the capacitance was set at 960 μF. After electroporation, the cells were diluted into complete media (10 mL) and plated onto four 10-cm dishes. Because of the variability in the efficiency of electroporation, four different concentrations of cells were plated. The ratios used were 1:20, 1:10, and 1:5, with the remainder of the cells being added to the fourth dish. The cells were allowed to recover for 24 h before adding the selection media (complete media with 600 μg/mL G418). After 10 d, dishes were analyzed for surviving colonies of cells. Dishes with well-isolated colonies were used. Cells from individual colonies were isolated and tested.
(§2) T84 frozen cell pellets or transfected SK—N-MC cells (contents of 1×15 cm culture dishes) were homogenized in 50 mL of FAAH assay buffer (125 mM Tris, 1 mM EDTA, 0.2% Glycerol, 0.02% Triton X-100, 0.4 mM Hepes, pH 9). The assay mixture consisted of 50 μL of the cell homogenate, 10 μL of the test compound, and 40 μL of anandamide [1-^3H-ethanolamine] (^3H-AEA, Perkin-Elmer, 10.3 Ci/mmol), which was added last, for a final tracer concentration of 80 nM. The reaction mixture was incubated at rt for 1 h. During the incubation, 96-well Multiscreen filter plates (catalog number MAFCNOB50; Millipore, Bedford, Mass., USA) were loaded with 25 μL of activated charcoal (Multiscreen column loader, catalog number MACL09625, Millipore) and washed once with 100 μL of MeOH. Also during the incubation, 96-well DYNEX MicroLite plates (catalog number NL510410) were loaded with 100 μL of MicroScint40 (catalog number 6013641, Packard Bioscience, Meriden, Conn., USA). After the 1 h incubation, 60 μL of the reaction mixture were transferred to the charcoal plates, which were then assembled on top of the DYNEX plates using Centrifuge Alignment Frames (catalog number MACF09604, Millipore). The unbound labeled ethanolamine was centrifuged through to the bottom plate (5 min at 2000 rpm), which was preloaded with the scintillant, as described above. The plates were sealed and left at rt for 1 h before counting on a Hewlett Packard TopCount.
(§3) Compounds were tested in free base, hydrochloride salt, and/or trifluoroacetic acid salt forms.

rat FAAH = biological target: T2, rat FAAH (Rattus norvegicus, UniProt P97612); experiment: Assay Method 2: FAAH assay, 3H-anandamide hydrolysis in homogenate of SK-N-MC cells transfected with rat FAAH; assay type: biochemical; details: average of results, > = solubility limit or highest concentration tested
T2 sequence (P97612 1-579): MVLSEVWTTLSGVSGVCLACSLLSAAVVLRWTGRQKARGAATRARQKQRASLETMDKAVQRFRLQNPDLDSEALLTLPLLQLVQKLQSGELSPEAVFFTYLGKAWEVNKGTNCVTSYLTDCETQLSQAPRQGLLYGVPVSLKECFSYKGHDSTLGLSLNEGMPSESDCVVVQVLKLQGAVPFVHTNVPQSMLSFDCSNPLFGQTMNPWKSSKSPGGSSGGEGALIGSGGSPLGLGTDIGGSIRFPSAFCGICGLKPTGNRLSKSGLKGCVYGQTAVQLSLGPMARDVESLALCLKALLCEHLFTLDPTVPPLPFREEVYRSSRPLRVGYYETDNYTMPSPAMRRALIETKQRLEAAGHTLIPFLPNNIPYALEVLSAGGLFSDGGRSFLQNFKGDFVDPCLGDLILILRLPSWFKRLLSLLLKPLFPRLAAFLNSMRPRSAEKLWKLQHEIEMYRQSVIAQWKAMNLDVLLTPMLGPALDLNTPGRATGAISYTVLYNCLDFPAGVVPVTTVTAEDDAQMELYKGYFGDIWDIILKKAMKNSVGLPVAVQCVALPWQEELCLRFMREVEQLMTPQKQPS
Method: A. Transfection of Cells with Rat FAAH
as §1, with “rat” for “human”
as §2, §3

| SMILES | IC50 (FAAH) [nM] | IC50 (rat FAAH) [nM] |
| --- | --- | --- |
| O=C(Nc1ccc(Cl)nn1)N1CCC(Cc2ccc3ccccc3c2)CC1 [Example 9, 4-Naphthalen-2-ylmethyl-piperidine-1-carboxylic acid (6-chloro-pyridazin-3-yl)-amide] | 552 | 57 |
| O=C(Nc1cnccn1)N1CCC(Cc2ccc3ccccc3c2)CC1 [Example 10, 4-Naphthalen-2-ylmethyl-piperidine-1-carboxylic acid pyrazin-2-ylamide trifluoroacetic acid salt] | 244 | 36 |
| O=C(Nc1nc(-c2ccccc2)ns1)N1CCC(Cc2ccc3ccccc3c2)CC1 [Example 12, 4-Naphthalen-2-ylmethyl-piperidine-1-carboxylic acid (3-phenyl-[1,2,4]thiadiazol-5-yl)-amide] | 5000 | 3000 |
| O=C(Nc1nnn[nH]1)N1CCC(Cc2ccc3ccccc3c2)CC1 [Example 13, 4-Naphthalen-2-ylmethyl-piperidine-1-carboxylic acid (1H-tetrazol-5-yl)-amide] | 5 | 87 |
| O=C(Nc1ccc2ccccc2n1)N1CCC(Cc2ccc3ccccc3c2)CC1 [Example 18, 4-Naphthalen-2-ylmethyl-piperidine-1-carboxylic acid quinolin-2-ylamide trifluoroacetic acid salt] | > 10000 | 9000 |
| O=C(Nc1ccc2ncsc2c1)N1CCC(Cc2ccc3ccccc3c2)CC1 [Example 19, 4-Naphthalen-2-ylmethyl-piperidine-1-carboxylic acid benzothiazol-6-ylamide] | 1500 | 55 |
| O=C(Nc1noc2ccccc12)N1CCC(Cc2ccc3ccccc3c2)CC1 [Example 21, 4-Naphthalen-2-ylmethyl-piperidine-1-carboxylic acid benzo[d]isoxazol-3-ylamide] | 43 | 7 |
| O=C(Nc1noc2ccccc12)N1CCC(Cc2ccc(F)cc2)CC1 [Example 22, 4-(4-Fluoro-benzyl)-piperidine-1-carboxylic acid benzo[d]isoxazol-3-ylamide] | 108 | 77 |
| O=C(Nc1ccc(Cl)nn1)N1CCC(Cc2cccc(C(F)(F)F)c2)CC1 [Example 25, 4-(3-Trifluoromethyl-benzyl)-piperidine-1-carboxylic acid (6-chloro-pyridazin-3-yl)-amide] | 1300 | 1300 |

Continued by falling IC50 (FAAH), values first:

| IC50 (FAAH) [nM] | IC50 (rat FAAH) [nM] | SMILES |
| --- | --- | --- |
| 5000 | 1000 | O=C(Nc1ccon1)N1CCC(Cc2cccc(C(F)(F)F)c2)CC1 [Example 26, 4-(3-Trifluoromethyl-benzyl)-piperidine-1-carboxylic acid isoxazol-3-ylamide] |
| 2000 | 2400 | O=C(Nc1cccs1)N1CCN(Cc2ccc3c(c2)OC(F)(F)O3)CC1 [Example 7, 4-(2,2-Difluoro-benzo[1,3]dioxol-5-ylmethyl)-piperazine-1-carboxylic acid thiophen-2-ylamide] |
| 1000 | 170 | O=C(Nc1ccon1)N1CCC(Cc2ccc3ccccc3c2)CC1 [Example 11, 4-Naphthalen-2-ylmethyl-piperidine-1-carboxylic acid isoxazol-3-ylamide] |
| 935 | 250 | O=C(Nc1cccc2ncccc12)N1CCC(Cc2ccc3ccccc3c2)CC1 [Example 20, 4-Naphthalen-2-ylmethyl-piperidine-1-carboxylic acid quinolin-5-ylamide trifluoroacetic acid salt] |
| 770 | 290 | O=C(Nc1ccsc1)N1CCN(Cc2ccc3c(c2)OC(F)(F)O3)CC1 [Example 8, 4-(2,2-Difluoro-benzo[1,3]dioxol-5-ylmethyl)-piperazine-1-carboxylic acid thiophen-3-ylamide] |
| 308 | 352 | O=C(Nc1ccc2nn[nH]c2c1)N1CCN(Cc2ccc3c(c2)OC(F)(F)O3)CC1 [Example 6, 4-(2,2-Difluoro-benzo[1,3]dioxol-5-ylmethyl)-piperazine-1-carboxylic acid (3H-benzotriazol-5-yl)-amide trifluoroacetic acid salt] |
| 218 | 63 | O=C(Nc1ccn[nH]1)N1CCC(Cc2ccc3ccccc3c2)CC1 [Example 14, 4-Naphthalen-2-ylmethyl-piperidine-1-carboxylic acid (2H-pyrazol-3-yl)-amide] |
| 170 | 1200 | O=C(Nc1cccc2nonc12)N1CCN(Cc2ccc3c(c2)OC(F)(F)O3)CC1 [Example 5, 4-(2,2-Difluoro-benzo[1,3]dioxol-5-ylmethyl)-piperazine-1-carboxylic acid benzo[1,2,5]oxadiazol-4-ylamide trifluoroacetic acid salt] |
| 77 | 47 | O=C(Nc1noc2ccccc12)N1CCC(Cc2cccc(C(F)(F)F)c2)CC1 [Example 27, 4-(3-Trifluoromethyl-benzyl)-piperidine-1-carboxylic acid benzo[d]isoxazol-3-ylamide] |
| 59 | 23 | O=C(Nc1cccc2nonc12)N1CCC(Cc2ccc3ccccc3c2)CC1 [Example 15, 4-Naphthalen-2-ylmethyl-piperidine-1-carboxylic acid benzo[1,2,5]oxadiazol-4-ylamide] |
| 39 | 5 | O=C(Nc1ccc2[nH]nnc2c1)N1CCC(Cc2ccc3ccccc3c2)CC1 [Example 16, 4-Naphthalen-2-ylmethyl-piperidine-1-carboxylic acid (1H-benzotriazol-5-yl)-amide] |
